PMC9769921, “Characteristics of the GlnH and GlnX Signal Transduction Proteins Controlling PknG-Mediated Phosphorylation of OdhI and 2-Oxoglutarate Dehydrogenase Activity in Corynebacterium glutamicum” (Microbiology Spectrum, 2022)
Where a chain is given by its changes, count along the chain named. In names and notes the source's numbering stands. Several values for one entry are separate records, joined by “and”; a condition that tells them apart may be missing. Equal values may be shown once.

How the values were obtained:
His10-GlnHΔSP (GlnH) = His10-GlnHΔSP (GlnH) (Corynebacterium glutamicum, UniProt Q8NM30); experiment: Isothermal titration calorimetry with His10-GlnHΔSP; format: binding; details: for binding to His10-GlnHΔSP / mean observed enthalpy change: ITC, 40 mM HEPES pH 7, 100 mM KCl; for binding to His10-GlnHΔSP: 10 mM MgCl2; for mean observed enthalpy change: 10 mM MgCl2, 25°C
His10-GlnHΔSP (GlnH), sequence (Q8NM30 entry or part of it, stated change not applied): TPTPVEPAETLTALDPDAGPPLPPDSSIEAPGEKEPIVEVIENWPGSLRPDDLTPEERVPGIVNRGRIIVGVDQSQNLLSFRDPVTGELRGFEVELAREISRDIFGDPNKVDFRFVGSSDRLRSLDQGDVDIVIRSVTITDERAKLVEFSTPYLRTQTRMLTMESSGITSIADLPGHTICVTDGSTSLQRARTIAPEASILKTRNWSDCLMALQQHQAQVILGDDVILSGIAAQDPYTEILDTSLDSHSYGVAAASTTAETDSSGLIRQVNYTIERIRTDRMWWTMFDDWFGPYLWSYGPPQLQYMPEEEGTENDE
From the text: Based on the similarity to the glutamine-binding protein GlnH of E. coli, which is part of the ABC transporter GlnHPQ ([28], [29]), the protein encoded by cg3045 in the C. glutamicum genome was initially annotated as a putative glutamine binding protein ([20]). […] To characterize the ligand binding properties of GlnH, a soluble protein version lacking the N-terminal signal peptide and the lipobox motif was overproduced in E. coli BL21(DE3) using the expression plasmid pET-TEV-glnHΔSP and purified by Ni^2+-chelate affinity chromatography. The His-tagged protein was used for interaction studies with different potential ligands using isothermal titration calorimetry (ITC). Based on the annotation, L-glutamine was first tested as a ligand, but no binding to His10-GlnHΔSP was observed under the conditions used (40 mM HEPES, pH 7, 100 mM KCl, 10 mM MgCl2). In contrast, L-aspartate and L-glutamate served as ligands for His10-GlnHΔSP, although with moderate affinity. […] In both cases, binding was exothermic with mean observed enthalpy changes of −18.5 ± 4.3 kJ/mol for L-aspartate and −17.5 ± 5.0 kJ/mol for L-glutamate. […] In Fig. 6, representative ITC experiments are shown for the five ligands tested.
Purified His10-GlnHΔSP was dialyzed overnight against a 500-fold excess of dialysis buffer (40 mM HEPES, 100 mM KCl, 10 mM MgCl2, pH 7.0). Stock solutions of the potential ligands L-aspartic acid, L-glutamic acid, L-asparagine, L-glutamine, and 2-oxoglutarate were prepared in dialysis buffer, and the pH was adjusted to pH 7.0 using KOH. ITC measurements were performed with a MicroCal PEAQ-ITC instrument (Malvern Panalytical, Malvern, Great Britain) operated at 25°C. Protein concentrations between 30 μM and 75 μM were used together with ligand concentrations of 7.5 mM to 50 mM. Prior to being filled with 300 μL protein solution, the measuring cell was rinsed with dialysis buffer, while the syringe was filled with 75 μL ligand solution. An ITC run was started with an initial injection of 0.4 μL followed by 12 injections of 3 μL each. In addition, control experiments with ligand solution titrated into the dialysis buffer were performed. The data were analyzed using MicroCal ITC analysis software (Malvern Panalytical), and a fixed 1:1 binding stoichiometry was assumed to determine the binding affinity.

C. glutamicum = system: C. glutamicum; set-up: method as in PMID 15870446; details: cited from earlier work
His10-GlnHcore (GlnH) = His10-GlnHcore (GlnH) (Corynebacterium glutamicum, UniProt Q8NM30); experiment: Intrinsic tryptophan fluorescence ligand binding, parental His10-GlnHcore
His10-GlnHcore (GlnH), sequence (Q8NM30 entry or part of it): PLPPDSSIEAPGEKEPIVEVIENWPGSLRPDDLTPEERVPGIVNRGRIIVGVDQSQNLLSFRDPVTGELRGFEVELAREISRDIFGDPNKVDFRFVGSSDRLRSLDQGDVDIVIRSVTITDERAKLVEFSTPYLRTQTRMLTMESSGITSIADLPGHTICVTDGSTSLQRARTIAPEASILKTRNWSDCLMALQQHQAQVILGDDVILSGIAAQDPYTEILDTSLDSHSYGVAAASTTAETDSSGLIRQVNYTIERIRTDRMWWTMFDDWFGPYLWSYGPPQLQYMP

GlnH of C. glutamicum [1] = biological target: GlnH of C. glutamicum; set-up: method as in PMID 30065086; details: change in intrinsic tryptophan fluorescence; cited from earlier work
GlnH of C. glutamicum [2] = system: GlnH of C. glutamicum; set-up: method as in PMID 30065086; details: cited from earlier work
M. tuberculosis GlnH = biological target: M. tuberculosis GlnH; set-up: method as in PMID 30065086; details: cited from earlier work
[3] = biological target: T1, OdhA subunit of the 2-oxoglutarate dehydrogenase complex (ODH) (Corynebacterium glutamicum (endogenous in C. glutamicum ΔodhI)) (UniProt Q8NRC3)
T1 sequence: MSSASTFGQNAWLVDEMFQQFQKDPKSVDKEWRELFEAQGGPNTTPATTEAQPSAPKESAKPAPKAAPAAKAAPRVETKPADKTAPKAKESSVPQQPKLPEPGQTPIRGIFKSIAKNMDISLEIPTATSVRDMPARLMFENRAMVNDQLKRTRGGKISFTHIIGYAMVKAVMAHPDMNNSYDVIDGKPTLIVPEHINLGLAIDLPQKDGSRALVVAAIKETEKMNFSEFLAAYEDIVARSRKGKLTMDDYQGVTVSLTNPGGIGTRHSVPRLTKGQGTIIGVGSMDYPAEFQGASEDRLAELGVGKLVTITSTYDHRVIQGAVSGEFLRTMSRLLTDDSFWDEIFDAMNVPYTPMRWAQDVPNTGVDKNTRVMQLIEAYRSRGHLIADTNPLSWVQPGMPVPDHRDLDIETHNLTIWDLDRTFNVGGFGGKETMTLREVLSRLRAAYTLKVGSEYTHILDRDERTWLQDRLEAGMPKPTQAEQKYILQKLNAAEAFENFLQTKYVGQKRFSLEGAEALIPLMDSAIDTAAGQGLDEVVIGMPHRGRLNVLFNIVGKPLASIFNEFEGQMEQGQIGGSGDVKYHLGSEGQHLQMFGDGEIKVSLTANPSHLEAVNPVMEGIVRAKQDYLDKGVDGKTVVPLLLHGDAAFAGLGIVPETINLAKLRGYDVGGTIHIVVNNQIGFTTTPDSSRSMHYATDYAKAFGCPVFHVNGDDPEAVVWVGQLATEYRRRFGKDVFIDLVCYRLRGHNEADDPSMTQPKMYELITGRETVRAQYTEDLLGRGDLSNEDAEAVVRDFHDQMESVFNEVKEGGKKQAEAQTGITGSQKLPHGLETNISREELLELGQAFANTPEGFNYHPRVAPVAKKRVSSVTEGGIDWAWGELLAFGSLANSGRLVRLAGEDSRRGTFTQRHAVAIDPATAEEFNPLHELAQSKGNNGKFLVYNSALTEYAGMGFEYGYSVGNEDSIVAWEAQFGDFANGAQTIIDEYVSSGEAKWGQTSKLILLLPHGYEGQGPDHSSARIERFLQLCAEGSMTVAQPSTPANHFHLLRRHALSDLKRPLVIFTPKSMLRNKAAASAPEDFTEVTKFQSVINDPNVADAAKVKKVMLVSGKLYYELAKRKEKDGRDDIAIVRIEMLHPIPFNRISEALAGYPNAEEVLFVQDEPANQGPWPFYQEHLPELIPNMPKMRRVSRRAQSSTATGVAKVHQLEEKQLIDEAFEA

[4] = biological target: 2-oxoglutarate dehydrogenase complex (ODH) (Corynebacterium glutamicum, UniProt Q8NRC3); experiment: ODH activity of cell-free extracts of C. glutamicum ΔodhI with added OdhI variants (photometric, NADH formation); details: 100% = 135 ± 12 nmol min^−1 (mg protein)^−1 without added OdhI
2-oxoglutarate dehydrogenase complex (ODH), sequence (Q8NTE1 whole entry, one chain of several): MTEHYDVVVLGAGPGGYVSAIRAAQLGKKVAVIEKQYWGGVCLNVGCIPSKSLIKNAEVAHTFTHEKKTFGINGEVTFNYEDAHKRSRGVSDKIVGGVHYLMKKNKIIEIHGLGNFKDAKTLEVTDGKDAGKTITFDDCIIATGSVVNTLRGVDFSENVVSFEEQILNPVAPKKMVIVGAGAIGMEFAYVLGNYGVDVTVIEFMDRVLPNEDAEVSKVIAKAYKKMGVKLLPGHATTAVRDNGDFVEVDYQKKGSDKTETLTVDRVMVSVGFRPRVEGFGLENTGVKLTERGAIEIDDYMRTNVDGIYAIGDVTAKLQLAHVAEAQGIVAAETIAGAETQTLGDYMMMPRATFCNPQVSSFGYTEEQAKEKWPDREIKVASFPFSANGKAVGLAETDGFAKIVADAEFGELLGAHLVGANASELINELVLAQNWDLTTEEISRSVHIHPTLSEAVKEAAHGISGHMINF
2-oxoglutarate dehydrogenase complex (ODH), sequence (Q8NNJ2 whole entry, one chain of several, further chain): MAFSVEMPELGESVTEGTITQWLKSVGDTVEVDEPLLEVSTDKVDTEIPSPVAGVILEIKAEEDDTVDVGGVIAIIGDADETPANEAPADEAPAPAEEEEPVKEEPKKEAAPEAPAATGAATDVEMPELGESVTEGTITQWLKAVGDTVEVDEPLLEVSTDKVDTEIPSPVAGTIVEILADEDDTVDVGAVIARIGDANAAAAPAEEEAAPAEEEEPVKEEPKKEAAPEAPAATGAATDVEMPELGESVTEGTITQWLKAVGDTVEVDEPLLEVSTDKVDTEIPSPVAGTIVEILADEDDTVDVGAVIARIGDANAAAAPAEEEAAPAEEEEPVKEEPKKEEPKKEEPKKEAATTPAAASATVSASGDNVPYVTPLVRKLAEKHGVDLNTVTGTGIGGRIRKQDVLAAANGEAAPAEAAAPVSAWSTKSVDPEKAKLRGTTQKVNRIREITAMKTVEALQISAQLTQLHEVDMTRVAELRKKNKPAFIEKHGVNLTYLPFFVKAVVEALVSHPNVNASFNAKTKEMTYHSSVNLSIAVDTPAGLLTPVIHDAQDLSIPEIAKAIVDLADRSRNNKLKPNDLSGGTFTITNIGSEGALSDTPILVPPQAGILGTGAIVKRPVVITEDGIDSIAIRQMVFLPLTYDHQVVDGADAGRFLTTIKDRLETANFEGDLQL
Procedure: Determination of the ODH activity in the presence of different OdhI variants was carried out using a photometric assay following NADH formation as described previously ([6], [8]).

With `O=C(O)CCC(=O)C(=O)O` [2-oxoglutarate] the “binding to His10-GlnHΔSP” value (His10-GlnHΔSP (GlnH)) was “no interaction”.

In the case of `CC[C@@H](CO)NCCN[C@@H](CC)CO` [Ethambutol], the “effect on glutamate secretion” value (C. glutamicum) is given as “trigger glutamate secretion”.

For `NC(=O)C[C@H](N)C(=O)O` [L-asparagine], the “binding to His10-GlnHΔSP” value (His10-GlnHΔSP (GlnH)) was “no interaction”.

For `N[C@@H](CC(=O)O)C(=O)O` [L-aspartate], the Kd (His10-GlnHcore (GlnH)) is given as 242 µM, the Kd (GlnH of C. glutamicum [1]) is given as 550 ± 90 µM and the “effect on thermal stability of GlnH” value (GlnH of C. glutamicum [2]) is given as “increased the thermal stability”. For the same molecule, the Kd (His10-GlnHΔSP (GlnH)) was 264 ± 14.6 µM, the “mean observed enthalpy change” value (His10-GlnHΔSP (GlnH)) was -4.42 ± 1.03 kcal/mol and the Kd (M. tuberculosis GlnH) was 4.8 ± 0.6 µM.

For `N[C@@H](CCC(=O)O)C(=O)O` [L-glutamate], the Kd (His10-GlnHcore (GlnH)) is given as 1460 µM, the Kd (GlnH of C. glutamicum [1]) is given as 2060 µM and the “effect on thermal stability of GlnH” value (GlnH of C. glutamicum [2]) is given as “increased the thermal stability”. The Kd (His10-GlnHΔSP (GlnH)) was 1260 µM, the “mean observed enthalpy change” value (His10-GlnHΔSP (GlnH)) was -4.18 ± 1.2 kcal/mol and the Kd (M. tuberculosis GlnH) was 15.2 ± 5.7 µM.

In the case of `NC(=O)CC[C@H](N)C(=O)O` [L-glutamine], the “binding to His10-GlnHΔSP” value (His10-GlnHΔSP (GlnH)) is reported as “no binding”.

B1: OdhI (natural protein)
chain: MSDNNGTPEPQVETTSVFRADLLKEMESSTGTAPASTGAENLPAGSALLVVKRGPNAGARFLLDQPTTTAGRHPESDIFLDDVTVSRRHAEFRINEGEFEVVDVGSLNGTYVNREPRNAQVMQTGDEIQIGKFRLVFLAGPAE
B1 gave a residual ODH activity of cell-free extracts of C. glutamicum ΔodhI after adding 0.38 nM or 1.9 nM purified OdhI (activity without OdhI = 100%) [3] of 3%.

B2: OdhI-R87P (natural protein)
chain: B1 chain with R87P
With B2 the “relative specific ODH activity (residual activity)” value ([4]; 0.38 nM protein added) was 83.1% and the residual ODH activity of cell-free extracts of C. glutamicum ΔodhI after adding 0.38 nM or 1.9 nM purified OdhI-R87P (activity without OdhI = 100%) [3] was greater than 50%.

B3: OdhI: 15-kDa forkhead-associated (FHA) domain-containing protein of C. glutamicum that inhibits ODH; purified, untagged (protein)
chain: B1 chain
modifications: left off: His10, N-terminal, cleaved
In the case of B3, the “relative specific ODH activity (residual activity)” value ([4]; 0.38 nM protein added) is reported as 18.6% and the “relative specific ODH activity (residual activity)” value ([4]; 1.9 nM protein added) is reported as 3% and 3.1%.

B4: OdhI-R87A (natural protein)
chain: B1 chain with R87A
With B4 the “relative specific ODH activity (residual activity)” value ([4]; 0.38 nM protein added) was 68.9% and the residual ODH activity of cell-free extracts of C. glutamicum ΔodhI after adding 0.38 nM or 1.9 nM purified OdhI-R87A (activity without OdhI = 100%) [3] was greater than 50%.
